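Cultured in 96-well plates, cells were exposed to test compound for 48 hours across five concentrations. TGI: total growth inhibition.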
Key:
Experiment in all cases: NCI-60 cell line screen, 48 h
UACC-257 melanoma = test system: UACC-257 melanoma
SF-268 CNS = test system: SF-268 CNS
HT29 colon = test system: HT29 colon
SNB-19 CNS = test system: SNB-19 CNS
HS 578T breast = test system: HS 578T breast
OVCAR-4 ovarian = test system: OVCAR-4 ovarian
SF-539 CNS = test system: SF-539 CNS
786-0 renal = test system: 786-0 renal
KM12 colon = test system: KM12 colon
MOLT-4 leukemia = test system: MOLT-4 leukemia
ACHN renal = test system: ACHN renal
HOP-62 NSCLC = test system: HOP-62 NSCLC
M14 melanoma = test system: M14 melanoma
RPMI-8226 leukemia = test system: RPMI-8226 leukemia
CAKI-1 renal = test system: CAKI-1 renal
SK-OV-3 ovarian = test system: SK-OV-3 ovarian
UACC-62 melanoma = test system: UACC-62 melanoma
MDA-MB-231 breast = test system: MDA-MB-231 breast
SK-MEL-5 melanoma = test system: SK-MEL-5 melanoma
U251 CNS = test system: U251 CNS
SR leukemia = test system: SR leukemia
SNB-75 CNS = test system: SNB-75 CNS
SK-MEL-2 melanoma = test system: SK-MEL-2 melanoma
SW-620 colon = test system: SW-620 colon
MCF7 breast = test system: MCF7 breast
DU-145 prostate = test system: DU-145 prostate
OVCAR-8 ovarian = test system: OVCAR-8 ovarian
SK-MEL-28 melanoma = test system: SK-MEL-28 melanoma
EKVX NSCLC = test system: EKVX NSCLC
SN12C renal = test system: SN12C renal
SF-295 CNS = test system: SF-295 CNS
MDA-MB-435 = test system: MDA-MB-435
COLO 205 colon = test system: COLO 205 colon
UO-31 renal = test system: UO-31 renal
MDA-N = test system: MDA-N
HL-60(TB) leukemia = test system: HL-60(TB) leukemia
NCI-H460 lung = test system: NCI-H460 lung
HCT-116 colon = test system: HCT-116 colon
A549 NSCLC = test system: A549 NSCLC
HCT-15 colon = test system: HCT-15 colon
PC-3 prostate = test system: PC-3 prostate
K-562 leukemia = test system: K-562 leukemia
T-47D breast = test system: T-47D breast
RXF 393 renal = test system: RXF 393 renal
IGROV1 ovarian = test system: IGROV1 ovarian
NCI/ADR-RES ovarian = test system: NCI/ADR-RES ovarian
CCRF-CEM leukemia = test system: CCRF-CEM leukemia
TK-10 renal = test system: TK-10 renal
HCC-2998 colon = test system: HCC-2998 colon
NCI-H23 lung = test system: NCI-H23 lung
NCI-H522 lung = test system: NCI-H522 lung
MALME-3M melanoma = test system: MALME-3M melanoma
OVCAR-3 ovarian = test system: OVCAR-3 ovarian
A498 renal = test system: A498 renal
LOX IMVI melanoma = test system: LOX IMVI melanoma
OVCAR-5 ovarian = test system: OVCAR-5 ovarian
HOP-92 NSCLC = test system: HOP-92 NSCLC
BT-549 breast = test system: BT-549 breast

Measured: TGI

Brc1ccc(-c2cc(-c3ccc4c(c3)OCO4)c(-c3cccs3)n2Cc2ccccc2)cc1
not listed: NCI-H23 lung | NCI-H522 lung | MALME-3M melanoma | OVCAR-3 ovarian | A498 renal | LOX IMVI melanoma | OVCAR-5 ovarian | HOP-92 NSCLC | BT-549 breast
> 100 µM: all other assays above

CC(=O)N(C(C)=O)n1nc2c(n1)C(=O)c1ccccc1C2=O
not listed: SR leukemia | SNB-75 CNS | K-562 leukemia | HCC-2998 colon
> 100 µM: all other assays above

From PubChem BioAssay (NCI)
